# Entries after “also recorded” stand apart in the source; their conditions may differ. Read-outs that look alike come from different tables or passages of the source. Bridge positions count the residues as written; N and C are the ends. Square brackets hold non-standard residues; d marks the D form. Peptide text beside a SMILES is read from it. Orn = NCCC[C@H](N)C(=O)O; Mpa = O=C(O)CCS
# Legend:
# [1] = Part A: three-period crossover, single doses of compound (2) and MgSO4 alone and co-administered; conditions: for pharmacokinetic interaction between compound (2) and MgSO4: in vivo
# Experimental: Both studies enrolled 12 healthy, non-pregnant women of reproductive age. […] During the MgSO4 study, women stayed in the clinic from Day −1 to Day 4 of each period. Safety and pharmacokinetics were assessed in accordance with European and United States clinical drug-interaction guidelines. Additional electrocardiogram and neurological examinations were performed assessing safety following MgSO4 administration.
# One cohort of 12 subjects was admitted to the study unit on day −1, period 1. […] On day 1, subjects were crossed over and received the alternate treatment to that in period 1. Subjects were discharged on day 3, and after washout returned on day −1, period 3. […] Outpatient visits occurred on days 4 and 5 followed by a final visit 7 days (±1 day) later. Venous blood samples used in pharmacokinetic analyses were taken pre-dose then 0.25, 0.5, 0.75, 1, 1.5, 2, 3, 4, 6, 8, 12, 16 and 20 hours post dose on day 1 of each treatment period. Single samples for pharmacokinetic analysis were also drawn on days 2, 3, 4 and 5 of each treatment period.
# (§1) Plasma samples used to determine drug concentration were analyzed by SGS (SGS CEPHAC, France) using a validated methods. Non-compartmental analysis was used to estimate pharmacokinetic parameters and pharmacokinetic modeling was used to access time-dependent pharmacokinetics. […] Other pharmacokinetic parameters were calculated according to standard equations.
# Pharmacokinetic interaction assessments were performed on logarithmically transformed AUC0-24, AUC0-∞ and Cmax values using ANOVA models with fixed effects for sequence (Part A only), period, and treatment and a random term for subject within sequence.
# (§2) Differences in tmax were explored by computing the Hodges-Lehmann estimate and the corresponding 90% CI according to Tukey using the approximate method. The Wilcoxon signed rank test was used to test differences in tmax. Unrecorded values were treated as missing.
# [2] = in vivo
# Experimental: (§3) Both studies enrolled 12 healthy, non-pregnant women of reproductive age. […] Safety and pharmacokinetics were assessed in accordance with European and United States clinical drug-interaction guidelines.
# (§4) Once at steady state, compound (2) was sequentially co-administered with each of the other tocolytic drugs. Subjects were admitted to the study unit on day −1. On day 1, each subject received a single intravenous treatment course of atosiban. […] From days 4 to 9, oral doses of compound (2) (1,000 mg) were administered until reaching steady state. […] Two additional samples were taken at 24 and 48 hours post dose to determine betamethasone concentration, due to the longer half-life of this drug. Pharmacokinetic sampling also occurred before compound (2) administration on days 4, 5, 6, 7, 8 and 9, with an additional 0.25 hour post-dose sample taken on day 9 to determine concentration of compound (2) and its metabolite, compound (1). […] Pharmacokinetic samples were obtained at the times stated above on days 10, 11 and 12, and additional betamethasone samples were obtained 24 and 48 hours post-dose. Subjects were discharged on day 14 and returned for a follow-up visit on day 21.
# as §1
# (§5) Pharmacokinetic interaction assessments were performed on logarithmically transformed AUC0-24, AUC0-∞ and Cmax values using ANOVA models with fixed effects for sequence (Part A only), period, and treatment and a random term for subject within sequence. The 90% confidence intervals (90% CI) for the geometric mean ratio of AUC0-24, AUC0-∞ and Cmax were constructed, comparing treatments administered alone versus combination treatments.
# as §2
# [3] = clinical; conditions: female, human, in vivo
# Experimental: as §3, §4, §1, §5, §2
# [4] = relative to compound 1; cited from earlier work
# [5] = target: T1, Pept1 transporter protein (Homo sapiens, UniProt P46059); test: Pept1 transporter dependence of intestinal absorption; assay type: in vitro ADME
# T1 sequence (P46059 1-708): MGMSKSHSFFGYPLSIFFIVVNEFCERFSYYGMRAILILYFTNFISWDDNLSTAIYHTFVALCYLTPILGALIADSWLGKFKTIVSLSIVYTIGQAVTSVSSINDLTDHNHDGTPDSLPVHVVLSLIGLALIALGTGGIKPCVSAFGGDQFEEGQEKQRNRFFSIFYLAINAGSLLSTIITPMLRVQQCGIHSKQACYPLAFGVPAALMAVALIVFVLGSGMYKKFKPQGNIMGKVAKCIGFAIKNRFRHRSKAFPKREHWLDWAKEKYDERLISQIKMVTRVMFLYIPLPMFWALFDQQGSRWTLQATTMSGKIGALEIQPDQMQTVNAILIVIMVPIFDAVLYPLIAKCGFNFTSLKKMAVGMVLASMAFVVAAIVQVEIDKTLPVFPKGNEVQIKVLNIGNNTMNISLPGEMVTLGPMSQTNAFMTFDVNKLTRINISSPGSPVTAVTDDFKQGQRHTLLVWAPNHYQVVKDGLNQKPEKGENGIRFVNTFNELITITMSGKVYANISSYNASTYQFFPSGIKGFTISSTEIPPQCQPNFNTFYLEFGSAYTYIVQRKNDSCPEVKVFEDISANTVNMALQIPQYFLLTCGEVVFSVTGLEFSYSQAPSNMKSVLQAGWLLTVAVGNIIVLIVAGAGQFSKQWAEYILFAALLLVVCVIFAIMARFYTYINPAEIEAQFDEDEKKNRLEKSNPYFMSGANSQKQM
# From the text: Compound 2 is de-esterified by ambient esterases in the small intestine and subsequently penetrates the small intestinal epithelium passively. […] Pept1 is known to mediate the absorption of a variety of valinate esters, as described, for example, in Vig et al., Adv. Drug Deliv. Rev. […] Dispos. 41:608-614 (2013). […] Rather, compound 2 and salts thereof are converted in vivo to a form that is readily absorbed in a manner independent of energy and local proton gradient. This beneficial property, coupled with the high aqueous solubility of compound I and salts thereof, fosters a pharmacokinetic profile in which compound 2 and salts thereof readily dissolve in an aqueous environment and are in turn converted into a form capable of transported-independent absorption.
# [6] = clinical drug-interaction study in healthy women, Parts A and B together (pharmacokinetics, safety, tolerability); assay type: in vivo, human; conditions: plasma, oral compound (2)
# Experimental: Healthy women aged between 18 and 45 years with a body mass index of 18.0 to 30.0 kg/m^2 were included in these investigations. Subjects were screened 55 days before the first drug administration and had to be healthy according to medical history, physical examinations, blood pressure tests, electrocardiogram results and laboratory assessment of blood and urine.
# This study was performed at Croydon University Hospital, Croydon, UK. The study protocol (EudraCT: 2016-001958-18) was reviewed and approved by a National Health Service (NHS) Research Ethics Committee (South Central-Berkshire B, UK) and the Medicines and Healthcare products Regulatory Authority (MHRA). The study was conducted according to the ethical principles enshrined in UK law, the Declaration of Helsinki and Good Clinical Practice guidelines. All subjects were informed of the purpose of the study and signed voluntary consent forms before being enrolled.
# Other pharmacokinetic parameters were calculated according to standard equations.
# [7] = crystal form stability and hygroscopicity; assay type: physicochemical
# From the text: For example, this compound is readily crystallized using a several distinct experimental procedures. Compound 3 assumes a single, reproducible crystal form upon crystallization from a variety of media and under different ambient conditions. […] For instance, impurities associated with atmospheric water are not readily integrated into the crystalline form of compound 3.
# [8] = Part B: single-sequence crossover, compound (2) at steady state co-administered with atosiban, nifedipine or betamethasone; conditions: for Tmax: female, human, in vivo, iv, 60.75 mg, time of peak plasma concentration
# Experimental: as §3, §4, §1, §5, §2
# [9] = co-administration with MgSO4 vs compound (2) alone
# [10] = compound (2) with MgSO4 vs alone
compound,measurement,setting,value
"O=S(=O)([O-])[O-].[Mg+2] [MgSO4, magnesium sulfate, reference compound]",AUCs of total Mg,[1]; after co-administration of compound (2) and MgSO4 vs MgSO4 alone,slightly lower
same,pharmacokinetic interaction between compound (2) and MgSO4,[1],no relevant mutual pharmacokinetic interactions
same,effect of compound (2) on timing or extent of total Mg exposure,[1]; interaction analysis,no effects
"O=C(N[C@@H](CCO)c1ccc(F)cc1)[C@@H]1SCCN1S(=O)(=O)c1ccc(-c2ccccc2)cc1 [compound (1), 3-([1,1′-biphenyl]-4-ylsulfonyl)-N-[1-(4-fluorophenyl)-3-hydroxypropyl]-1,3-thiazolidine-2-carboxamide]",change in compound (1) AUC0-24,"[2]; female, human",15-24%
same,change in compound (1) AUC (AUC0-24),"[2]; female, human",−21%
same,increase in compound (1) AUC,"[2]; female, human",15%
same,increase in compound (1) Cmax,"[2]; female, human",35%
same,increase in compound (1) MRT and t1/2,"[2]; female, human",1.7-2 fold
same,"PE, compound (1) AUC",[2]; human,0.786
same,"PE, compound (1) Cmax",[2]; human,0.719
same,changes in compound (1) tmax,[2]; human,not significant
same,compound (1) CL/F,[2]; human,decrease
same,compound (1) tmax,[2]; human,increase
same,compound (1) AUC0-24,[1]; [9],small decrease
same,compound (1) AUC0-t or AUC0-∞,[1]; [9],unchanged
same,compound (1) tmax,[1]; [10],slightly later; also recorded: no effect
same,interaction estimates (linear mixed model),[1]; [10],~1
same,compound (1) Cmax,[1]; during MgSO4 infusion vs compound (2) alone,lower
same,pharmacokinetic interaction between compound (2) and MgSO4,[1],no interaction of clinical significance
same,compound (1) mean t1/2 and MRT,[1]; with vs without MgSO4 infusion,nearly identical
same,Tmax,[3],3 h
"C[C@H]1C[C@H]2[C@@H]3CCC4=CC(=O)C=C[C@]4(C)[C@@]3(F)[C@@H](O)C[C@]2(C)[C@@]1(O)C(=O)CO [betamethasone, reference compound]","Cmax and AUCs, co-administration with compound (2) vs drug alone",[2],Slightly increased
same,rise of plasma concentrations,[2],increased more rapidly
same,"tmax, with compound (2) vs drug alone",[2],significantly shorter
"CC(C)[C@H](N)C(=O)OCC[C@H](NC(=O)[C@@H]1SCCN1S(=O)(=O)c1ccc(-c2ccccc2)cc1)c1ccc(F)cc1 [compound (2), (3S)-3-({[(2S)-3-(biphenyl-4-ylsulfonyl)-1,3-thiazolidin-2-yl]carbonyl}-amino)-3-(4-fluorophenyl)propyl L-valinate]",solubility in water and in FeSSIF and FaSSIF media,[4],improvements
same,pharmacokinetic interaction between compound (2) and MgSO4,[1],no relevant mutual pharmacokinetic interactions
same,substrate for the Pept1 transporter protein,[5],not substrates
same,"mean AUC0-∞ of compound (2), times lower than that of compound (1)",[6],771-1163 times
same,"mean peak concentration of compound (2), times lower than that of compound (1)",[6],133-246 times
"CC(C)[C@H](N)C(=O)OCC[C@H](NC(=O)[C@@H]1SCCN1S(=O)(=O)c1ccc(-c2ccccc2)cc1)c1ccc(F)cc1.Cl [compound (3), (3S)-3-({[(2S)-3-(biphenyl-4-ylsulfonyl)-1,3-thiazolidin-2-yl]carbonyl}-amino)-3-(4-fluorophenyl)propyl L-valinate hydrochloride]",hygroscopicity,[7],low
same,stability of the crystal form,[7]; ambient conditions and elevated relative humidity,extended stability
"COC(=O)C1=C(C)NC(C)=C(C(=O)OC)C1c1ccccc1[N+](=O)[O-] [nifedipine, reference compound]",effect of compound (2) on exposure to the co-administered drug,[2],marked increase
CCOc1ccc(C[C@H]2NC(=O)CCSSC[C@@H](C(=O)N3CCC[C@H]3C(=O)N[C@@H](CCCN)C(=O)NCC(N)=O)NC(=O)[C@H](CC(N)=O)NC(=O)[C@H]([C@@H](C)O)NC(=O)[C@H]([C@@H](C)CC)NC2=O)cc1 [atosiban] ([Mpa][dY](Et)ITNCP[Orn]G-NH2; disulfide 1-6),"Cmax and AUCs, co-administration with compound (2) vs drug alone",[8]; descriptive,slightly higher
same,Tmax,"[8]; co-administered with compound (2), compound (2) 1,000 mg per day at steady state",15 min
same,Tmax,[8]; drug administered alone,90 min
same,"tmax, with compound (2) vs drug alone",[8]; paired analysis,no significant tmax difference

# Source: patent US11534428B1, “Compositions and methods for delaying the incidence of labor” (ObsEva S.A., priority 2018, dated 2022)
